Results from paper PMC8187479, “Sugar phosphate activation of the stress sensor eIF2B” (Nature Communications, 2021).
Residue numbers refer to the chain shown, from its start. Entries after “also recorded” stand apart in the source; their conditions may differ.

Legend:
[1] = target: T1, eIF2Bα (Homo sapiens, UniProt Q14232); assay: MIDAS (mass spectrometry integrated with equilibrium dialysis) metabolite binding screen; settings: eIF2Bα2; 50 μM per metabolite pool; 40 h dialysis at 4 °C
T1 construct: made in house; host or cells: E. coli BL21(DE3)
T1 sequence (Q14232 1-305): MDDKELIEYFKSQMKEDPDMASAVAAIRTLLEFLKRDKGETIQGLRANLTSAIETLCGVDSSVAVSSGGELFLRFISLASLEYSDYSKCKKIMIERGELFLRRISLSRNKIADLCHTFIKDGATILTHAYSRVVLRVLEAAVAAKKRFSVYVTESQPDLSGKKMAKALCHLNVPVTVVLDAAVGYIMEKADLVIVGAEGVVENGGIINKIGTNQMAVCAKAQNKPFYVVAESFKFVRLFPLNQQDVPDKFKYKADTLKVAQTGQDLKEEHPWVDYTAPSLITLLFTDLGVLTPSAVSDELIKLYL
Method in brief: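 Hits called at Storey q < 0.1 on z-scores of PCA-corrected log2 fold change between protein and metabolite chambers, quantified by FIA-MS in triplicate.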

[2] = target: T2, eIF2Bα^N208Y (Homo sapiens, UniProt Q14232, N208Y); assay: Isothermal titration calorimetry, eIF2Bα N208Y; type: binding; settings: ITC
T2 construct: made in house; host or cells: E. coli BL21(DE3)
T2 sequence (Q14232 1-305 N208Y): T1 sequence (Q14232 1-305) with N208Y
Procedure: Interactions between recombinant protein and sugar phosphates were conducted with a MicroCal PEAQ-ITC (Malvern Panalytical Inc.). Experiments were performed in 25 mM HEPES, 150 mM NaCl, pH 7.5 at 20 °C. The sugar phosphate concentration in the syringe was 1 mM or 1.5 mM, and ~3.5 μL aliquots were injected into cells containing 300 μL eIF2Bα or eIF2B(βδγε) at a concentration of 20–30 μM. The final titration curves were fitted using MicroCal ITC data analysis software, assuming a single binding site per monomer.

[3] = target: T3, recombinant eIF2B(βδγε) ± eIF2Bα2 (Homo sapiens, UniProt P49770+Q14232+Q9UI10); assay: Size-exclusion chromatography of recombinant eIF2B(βδγε) with or without eIF2Bα; type: biochemical; settings: SEC, recombinant eIF2B(βδγε) + eIF2Bα2; 500 nM ISRIB, 200 μM F6P
T3 construct: made in house; host or cells: eIF2Bα: E. coli BL21(DE3)
T3 sequence (P49770 whole entry, one chain of several): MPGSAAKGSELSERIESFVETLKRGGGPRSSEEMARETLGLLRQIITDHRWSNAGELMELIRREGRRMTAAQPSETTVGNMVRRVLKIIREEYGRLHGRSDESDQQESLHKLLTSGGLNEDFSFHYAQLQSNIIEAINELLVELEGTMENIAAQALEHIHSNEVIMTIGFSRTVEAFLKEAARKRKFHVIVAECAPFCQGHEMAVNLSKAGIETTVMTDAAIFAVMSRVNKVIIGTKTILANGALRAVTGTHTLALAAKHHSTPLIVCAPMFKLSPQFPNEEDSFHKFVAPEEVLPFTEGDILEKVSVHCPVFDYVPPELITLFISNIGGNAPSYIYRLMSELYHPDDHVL
T3 sequence (Q9UI10 2-523, one chain of several): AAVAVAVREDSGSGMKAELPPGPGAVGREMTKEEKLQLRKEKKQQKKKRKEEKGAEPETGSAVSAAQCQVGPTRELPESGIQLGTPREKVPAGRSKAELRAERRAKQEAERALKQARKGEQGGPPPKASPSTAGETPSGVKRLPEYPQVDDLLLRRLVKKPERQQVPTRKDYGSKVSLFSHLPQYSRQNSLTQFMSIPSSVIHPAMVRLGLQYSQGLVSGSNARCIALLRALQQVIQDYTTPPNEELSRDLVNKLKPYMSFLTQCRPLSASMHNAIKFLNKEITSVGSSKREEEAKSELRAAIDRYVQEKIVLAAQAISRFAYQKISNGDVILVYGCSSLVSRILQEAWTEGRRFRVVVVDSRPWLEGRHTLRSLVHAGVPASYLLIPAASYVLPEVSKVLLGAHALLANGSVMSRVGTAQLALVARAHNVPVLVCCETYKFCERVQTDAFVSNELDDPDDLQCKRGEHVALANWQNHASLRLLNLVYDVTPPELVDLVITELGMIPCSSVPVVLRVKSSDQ
T3 sequence (Q9NR50 whole entry partner, one chain of several): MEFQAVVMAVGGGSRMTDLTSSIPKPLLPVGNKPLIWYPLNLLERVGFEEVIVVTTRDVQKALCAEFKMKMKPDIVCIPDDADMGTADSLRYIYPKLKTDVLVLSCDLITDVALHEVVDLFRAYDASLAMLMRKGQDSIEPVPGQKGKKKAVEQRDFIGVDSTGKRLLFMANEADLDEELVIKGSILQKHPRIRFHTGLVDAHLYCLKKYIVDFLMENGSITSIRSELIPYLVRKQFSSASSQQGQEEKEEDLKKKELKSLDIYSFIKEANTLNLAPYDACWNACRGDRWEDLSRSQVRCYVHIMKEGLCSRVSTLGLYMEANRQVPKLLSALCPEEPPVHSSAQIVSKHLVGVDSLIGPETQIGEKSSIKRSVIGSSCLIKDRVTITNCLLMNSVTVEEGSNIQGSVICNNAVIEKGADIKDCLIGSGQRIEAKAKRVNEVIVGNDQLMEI
T3 sequence (Q13144 whole entry partner, one chain of several): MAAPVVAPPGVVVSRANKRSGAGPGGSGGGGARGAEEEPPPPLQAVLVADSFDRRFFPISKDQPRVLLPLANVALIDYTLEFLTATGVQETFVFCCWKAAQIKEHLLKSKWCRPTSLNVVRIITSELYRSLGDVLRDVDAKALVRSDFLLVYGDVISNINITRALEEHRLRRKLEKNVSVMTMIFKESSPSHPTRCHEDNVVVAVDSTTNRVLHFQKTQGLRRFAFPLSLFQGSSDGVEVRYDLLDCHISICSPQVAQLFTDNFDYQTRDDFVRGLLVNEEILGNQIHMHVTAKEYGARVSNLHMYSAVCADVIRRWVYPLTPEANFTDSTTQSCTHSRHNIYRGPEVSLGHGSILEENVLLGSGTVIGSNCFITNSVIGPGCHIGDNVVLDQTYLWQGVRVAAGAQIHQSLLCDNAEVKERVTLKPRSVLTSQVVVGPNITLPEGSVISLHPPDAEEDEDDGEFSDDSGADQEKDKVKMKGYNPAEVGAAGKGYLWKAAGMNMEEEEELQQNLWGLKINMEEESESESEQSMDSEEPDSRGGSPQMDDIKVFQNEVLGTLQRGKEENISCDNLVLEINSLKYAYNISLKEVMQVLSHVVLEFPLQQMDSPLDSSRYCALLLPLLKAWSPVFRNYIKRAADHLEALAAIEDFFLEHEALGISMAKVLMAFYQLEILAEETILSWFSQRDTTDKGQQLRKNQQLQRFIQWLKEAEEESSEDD
Procedure: (§1) Purified proteins were thawed and centrifuged at 20,000 × g, 10 min, 4 °C to remove any potential precipitate. Concentrations of eIF2B(βδγε) and eIF2Bα were normalized to 2 μM and 2.4 μM, respectively. 0.2 mL of each mixture was injected onto a Superose 6 Increase 10/300 column connected to an AKTA Pure 25 FPLC system (GE Healthcare). The system was run at 0.5 mL/min for 1 h using 25 mM HEPES, 200 mM KCl, 2 mM MgCl2, 1 mM DTT, pH 7.5 as the mobile phase. For conditions with ISRIB, the protein samples and mobile phase were supplemented with 500 nM ISRIB. For conditions with F6P, the protein samples and mobile phase were supplemented with 200 μM F6P. UV280 measurements were obtained directly by the instrument.

[4] = target: T4, recombinant eIF2B(βδγε) ± eIF2Bα2 (Homo sapiens, UniProt P49770+Q9UI10); assay: as above; type: biochemical; settings: SEC, recombinant eIF2B(βδγε); 500 nM ISRIB, 200 μM F6P
T4 construct: made in house; host or cells: eIF2Bα: E. coli BL21(DE3)
T4 sequence (P49770 whole entry): as the sequence (P49770 whole entry, one chain of several) above
T4 sequence (Q9UI10 2-523): as the sequence (Q9UI10 2-523, one chain of several) above
T4 sequence (Q9NR50 whole entry partner): as the sequence (Q9NR50 whole entry partner, one chain of several) above
T4 sequence (Q13144 whole entry partner): as the sequence (Q13144 whole entry partner, one chain of several) above
Procedure: as §1

[5] = target: T5, phospho-eIF2α binding to eIF2B (Homo sapiens, UniProt P49770+Q14232+Q9UI10); assay: Phospho-eIF2α co-immunoprecipitation with FLAG-tagged eIF2B; settings: lysate of thapsigargin-treated HEK293T eIF2Bβ-FLAG cells; ligand 2 h at 4 °C
T5 construct: endogenous in cells; host or cells: HEK293T with FLAG knock-in at the endogenous eIF2Bβ locus, treated with thapsigargin; lysate, anti-FLAG IP
T5 sequence (P49770 whole entry, one chain of several): as the sequence (P49770 whole entry, one chain of several) above
T5 sequence (Q9UI10 whole entry, one chain of several): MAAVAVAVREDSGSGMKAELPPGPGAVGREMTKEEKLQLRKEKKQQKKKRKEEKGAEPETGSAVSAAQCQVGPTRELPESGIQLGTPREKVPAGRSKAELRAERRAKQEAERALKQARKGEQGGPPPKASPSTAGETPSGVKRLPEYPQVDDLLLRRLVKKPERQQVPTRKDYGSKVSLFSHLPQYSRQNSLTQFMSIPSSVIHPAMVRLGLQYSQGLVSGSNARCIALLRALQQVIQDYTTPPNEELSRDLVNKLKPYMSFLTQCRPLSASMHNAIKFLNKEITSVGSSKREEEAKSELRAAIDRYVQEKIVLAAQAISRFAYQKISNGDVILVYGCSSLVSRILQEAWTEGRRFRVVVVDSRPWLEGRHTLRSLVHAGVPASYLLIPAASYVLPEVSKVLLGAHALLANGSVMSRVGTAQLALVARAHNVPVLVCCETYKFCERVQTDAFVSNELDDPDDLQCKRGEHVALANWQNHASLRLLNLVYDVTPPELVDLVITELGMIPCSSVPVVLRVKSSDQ
T5 sequence (Q9NR50 whole entry partner, one chain of several): as the sequence (Q9NR50 whole entry partner, one chain of several) above
T5 sequence (Q13144 whole entry partner, one chain of several): as the sequence (Q13144 whole entry partner, one chain of several) above
Procedure: HEK293T cells endogenously expressing eIF2Bβ with a C-terminal FLAG tag were maintained in DMEM High Glucose (Corning CellGro) supplemented with 10% FBS (Gibco) and antibiotic-antimycotic (Gibco). Upon reaching 90% confluency, cells were treated with either DMSO or 100 nM thapsigargin (Sigma) for 4 h. Cells were harvested and lysed in 25 mM HEPES, 150 mM KCl, 1% NP-40, 1 mM EDTA, pH 7.4 + Complete protease inhibitor cocktail (Roche) and PhosStop (Roche) on ice for 20 min. Lysates were cleared by centrifugation at 18,000 × g, 20 min, 4 °C, and transferred to Eppendorf tubes containing anti-FLAG M2 magnetic beads (Sigma). Mixtures were incubated overnight at 4 °C. To test the effect of ligands, these were added to the mixtures and incubated for an additional 2 h at 4 °C. Beads were washed three times with lysis buffer, eluted with 1× LDS buffer (Invitrogen), and subjected to SDS-PAGE followed by Western Blot with the indicated antibodies.

O=C(CO)[C@@H](O)[C@H](O)[C@H](O)COP(=O)(O)O [F6P, fructose-6-phosphate]
MIDAS result (enrichment in the protein chamber / hit status) [1]: not a MIDAS hit
interaction with eIF2Bα N208Y [2]: does not interact; also recorded: abrogates binding
complex formation in the presence of eIF2Bα [3]: enhances eIF2B complex stability
complex formation in the absence of eIF2Bα [4]: ineffective at promoting complex formation
co-immunoprecipitation of phospho-eIF2α with FLAG-tagged eIF2B [5]: did not decrease the interaction
